Experiments:
[1] = system: human liver cancer cells (HepG2); assay: Activities against transplanted human liver cancer tumor in mice; format: in vivo, Balb/c-nu/nu nude mice; settings: HepG2 xenograft, 20 days after administration; for Inhibition rate (%): tumor weight vs control group
Procedure: Balb/c-nu/nu nude mice (5 to 7 weeks old, 16-20 g) were randomly grouped. The mice were inoculated subcutaneously with 0.1 ml of a cell suspension containing 10^6 human liver cancer cells (HepG2). Upon the tumor volume having reached 50 mm^3, the mice were intravenously injected with a dose of a conjugate or a free drug. Twenty days after the administration, the animals were sacrificed and their body weight and tumor weight were measured. Tumor inhibition rate was calculated according to the following equation: […]

[2] = system: human breast cancer cells (Bacp-37); assay: Activities against transplanted human breast cancer tumor in mice; format: in vivo, Balb/c-nu/nu nude mice; settings: Bacp-37 xenograft, 20 days after administration; for Inhibition rate (%): tumor weight vs control group
Procedure: Balb/c-nu/nu nude mice (5 to 7 weeks old, 16-20 g) were randomly grouped. The mice were inoculated subcutaneously with 0.1 ml of a cell suspension containing 10^6 human breast cancer cells (Bacp-37). Upon the tumor volume having reached 50 mm^3, the mice were intravenously injected with a dose of a conjugate or a free drug. Twenty days after the administration, the animals were sacrificed and their body weight and tumor weight were measured.

[3] = single i.v. dose 100 mg/kg (as free drug)

CC(=O)O[C@@]12CO[C@@H]1C[C@H](O)[C@@]1(C)C(=O)[C@H](O)C3=C(C)[C@@H](OC(=O)[C@H](O)[C@@H](NC(=O)OC(C)(C)C)c4ccccc4)C[C@@](O)([C@@H](OC(=O)c4ccccc4)[C@H]21)C3(C)C [Docetaxel]
Change of body weight (g) ([1]; i.v. 100 mg/kg (as free drug)): +6.92 g
Weight of tumor ([1]; i.v. 100 mg/kg (as free drug)): 0.56 g
Inhibition rate (%) ([1]; i.v. 100 mg/kg (as free drug)): 55.56%
Number of animals (final/initial) [1, 3]: 6/6
Change of body weight (g) ([2]; i.v. 100 mg/kg): +6.29 g
Weight of tumor ([2]; i.v. 100 mg/kg): 0.35 g
Number of animals (final/initial) ([2]; single i.v. dose 100 mg/kg): 6/6

Nc1ccn([C@@H]2O[C@H](CO)[C@@H](O)C2(F)F)c(=O)n1 [Gemcitabine]
Change of body weight (g) ([1]; i.v. 5 mg/kg (as free drug)): +4.77 g
Weight of tumor ([1]; i.v. 5 mg/kg (as free drug)): 0.45 g
Inhibition rate (%) ([1]; i.v. 5 mg/kg (as free drug)): 64.28%
Number of animals (final/initial) ([1]; single i.v. dose 5 mg/kg (as free drug)): 4/6
Change of body weight (g) ([2]; i.v. 5 mg/kg): +5.08 g
Weight of tumor ([2]; i.v. 5 mg/kg): 0.51 g
Inhibition rate (%) ([2]; i.v. 5 mg/kg): 63.08%
Number of animals (final/initial) ([2]; single i.v. dose 5 mg/kg): 5/6

CC(=O)O[C@H]1C(=O)[C@@]2(C)[C@H]([C@H](OC(=O)c3ccccc3)[C@]3(O)C[C@H](OC(=O)[C@H](O)[C@@H](NC(=O)c4ccccc4)c4ccccc4)C(C)=C1C3(C)C)[C@]1(OC(C)=O)CO[C@@H]1C[C@@H]2O [Paclitaxel]
Change of body weight (g) ([1]; i.v. 100 mg/kg (as free drug)): +5.38 g
Weight of tumor ([1]; i.v. 100 mg/kg (as free drug)): 0.54 g
Inhibition rate (%) ([1]; i.v. 100 mg/kg (as free drug)): 57.14%
Number of animals (final/initial) [1, 3]: 5/6
Change of body weight (g) ([2]; i.v. 100 mg/kg): +5.91 g
Weight of tumor ([2]; i.v. 100 mg/kg): 0.48 g
Inhibition rate (%) ([2]; i.v. 100 mg/kg): 65.22%
Number of animals (final/initial) ([2]; single i.v. dose 100 mg/kg): 5/6

[N-acetyl-poly-(L)-glutamic acid]-[2′-O-(L-alanyl)-docetaxel] conjugate [Compound I12]
Weight of tumor ([2]; i.v. 100 mg/kg): 0.34 g
Inhibition rate (%) ([2]; i.v. 100 mg/kg): 75.36%

[N-acetyl-poly-(L)-glutamic acid]-[2′-O-(L-alanyl)-paclitaxel] conjugate [Compound I10]
Weight of tumor ([2]; i.v. 100 mg/kg): 0.29 g
Inhibition rate (%) ([2]; i.v. 100 mg/kg): 78.99%

[N-acetyl-poly-(L)-glutamic acid]-[2′-O-(L-isoleucyl)-docetaxel] conjugate [Compound I18]
Weight of tumor ([2]; i.v. 100 mg/kg): 0.73 g
Inhibition rate (%) ([2]; i.v. 100 mg/kg): 47.10%

[N-acetyl-poly-(L)-glutamic acid]-[2′-O-(L-valyl)-paclitaxel] conjugate [Compound I22]
Weight of tumor ([2]; i.v. 100 mg/kg): 0.41 g
Inhibition rate (%) ([2]; i.v. 100 mg/kg): 70.29%

[N-acetyl-poly-(L)-glutamic acid]-[2′-O-(glycyl)-docetaxel] conjugate [Compound I6]
Weight of tumor ([2]; i.v. 100 mg/kg): 0.47 g
Inhibition rate (%) ([2]; i.v. 100 mg/kg): 65.94%

[N-acetyl-poly-(L)-glutamic acid]-[2′-O-(glycyl)-paclitaxel] conjugate [Compound I4]
Weight of tumor ([2]; i.v. 100 mg/kg): 0.42 g
Inhibition rate (%) ([2]; i.v. 100 mg/kg): 69.56%

[N-acetyl-poly-(L)-glutamic acid]-[5′-O-(L-alanyl)-gemcitabine] conjugate [Compound I8]
Weight of tumor ([2]; i.v. 5 mg/kg): 0.39 g
Inhibition rate (%) ([2]; i.v. 5 mg/kg): 71.73%

[poly-(L)-glutamic acid]-[5′-O-(glycyl)-gemcitabine] conjugate [Compound I1]
Weight of tumor ([2]; i.v. 5 mg/kg): 0.46 g
Inhibition rate (%) ([2]; i.v. 5 mg/kg): 71.01%

Source: patent US20120041167A1, “POLY(GLUTAMIC ACID)-DRUG CONJUGATE WITH AN AMINO ACID AS A LINKER” (Institute of Pharmacology and Toxicology Academy of …, priority 2006, published 2012)
